Values of other authors as cited in patent publication US6733793B2, “Oral composition with insulin-like activities and methods of use” (MetaProteomics, LLC, priority 2002, dated 2004).

Tests used:
[1] = rats, inhaled
[2] = test system: bovine papilloma virus DNA-tranfected C3H/10T1/2 cells; details: in vitro, bovine papilloma virus DNA-transfected C3H/10T1/2 cells

## O=S(=O)([O-])[O-].[O]=[V+2] [Vanadyl sulfate]
[1]
  Pulmonary inflammation: induce pulmonary inflammation
Fruit fly
  Chromosomal damage and mitotic recombination: induce chromosomal damage and mitotic recombination
[2]
  Tumor promotion activity: possess tumor promotion activity
